The numbers were not newly measured in PMC6222850, “^66Ga: A Novelty or a Valuable Preclinical Screening Tool for the Design of Targeted Radiopharmaceuticals?” (Molecules : A Journal of Synthetic Chemistry and Natural …, 2018), which cites them from elsewhere.

The data set concerns LNCaP tumors. The arrangement: method as in PMID 29623376.

Take `O=C(O)CC[C@H](NC(=O)N[C@@H](CCCCNC(=O)[C@H](Cc1ccc2ccccc2c1)NC(=O)[C@H]1CC[C@H](CNC(=O)CN2CCN(CC(=O)O)CCN(CC(=O)O)CCN(CC(=O)O)CC2)CC1)C(=O)O)C(=O)O` [PSMA-617]: the Clearance from blood entry is recorded as “fast clearance from blood”.
